Reference: patent US8410090B2, “Heterocyclylamide-substituted thiazoles, pyrroles and thiophenes” (AiCuris GmbH & Co. KG, priority 2005, dated 2013)

Assays:
HCMV = test: Anti-HCMV cytopathogenicity test (CPE inhibition); type: cell-based, human cytomegalovirus; conditions: for EC50: Human betaherpesvirus 5, 144 h, concentration inhibiting CPE by 50% vs untreated virus control, HCMV-infected NHDF cells, M.O.I. 0.001-0.002, 6 days; for SI HCMV (selectivity index = CC50 (NHDF)/EC50 (HCMV)): ratio CC50 (NHDF)/EC50 (HCMV)
Procedure: Anti-HCMV (Anti-Human Cytomegalovirus) Cytopathogenicity Tests The test compounds are employed as 50 millimolar (mM) solutions in dimethyl sulphoxide (DMSO). Ganciclovir, foscarnet and cidofovir are used as reference compounds. After addition of in each case 2 μl of the 50, 5, 0.5 and 0.05 mM DMSO stock solutions to 98 μl portions of cell culture medium in row […] for duplicate determinations, 1:2 dilutions are carried out with 50 μl portions of medium up to row 11 of the 96-well plate. The wells in rows 1 and 12 each contain 50 μl of medium. Then 150 μl portions of a suspension of 1×10^4 cells (human prepuce fibroblasts [NHDF]) are pipetted into each of the wells (row 1=cell control) and, in rows 2-12, a mixture of HCMV-infected and uninfected NHDF cells (M.O.I.=0.001-0.002), i.e. 1-2 infected cells per 1000 uninfected cells. Row 12 (without substance) serves as virus control. The final test concentrations are 250-0.0005 μM. The plates are incubated at 37° C./5% CO2 for 6 days, i.e. until all the cells are infected in the virus controls (100% cytopathogenic effect [CPE]). The wells are then fixed and stained by adding a mixture of formalin and Giemsa's dye (30 minutes), washed with double-distilled water and dried in a drying oven at 50° C. The plates are then assessed visually using an overhead microscope (Plaque Multiplier from Technomara). The following data can be acquired from the test plates: EC50 (HCMV)=substance concentration in μM which inhibits the CPE (cytopathic effect) by 50% compared with the untreated virus control; SI (selectivity index)=CC50 (NHDF)/EC50 (HCMV).

[1] = Cytostatic effect on NHDF cells in the anti-HCMV cytopathogenicity test; type: cell-based; conditions: human, NHDF cells (human prepuce fibroblasts); maximum concentration with no visible cytostatic effects on NHDF cells vs untreated cell control; 6 days incubation
Procedure: Anti-HCMV (Anti-Human Cytomegalovirus) Cytopathogenicity Tests The test compounds are employed as 50 millimolar (mM) solutions in dimethyl sulphoxide (DMSO). Ganciclovir, foscarnet and cidofovir are used as reference compounds. After addition of in each case 2 μl of the 50, 5, 0.5 and 0.05 mM DMSO stock solutions to 98 μl portions of cell culture medium in row […] for duplicate determinations, 1:2 dilutions are carried out with 50 μl portions of medium up to row 11 of the 96-well plate. The wells in rows 1 and 12 each contain 50 μl of medium. Then 150 μl portions of a suspension of 1×10^4 cells (human prepuce fibroblasts [NHDF]) are pipetted into each of the wells (row 1=cell control) and, in rows 2-12, a mixture of HCMV-infected and uninfected NHDF cells (M.O.I.=0.001-0.002), i.e. 1-2 infected cells per 1000 uninfected cells. Row 12 (without substance) serves as virus control. The final test concentrations are 250-0.0005 μM. The plates are incubated at 37° C./5% CO2 for 6 days, i.e. until all the cells are infected in the virus controls (100% cytopathogenic effect [CPE]). The wells are then fixed and stained by adding a mixture of formalin and Giemsa's dye (30 minutes), washed with double-distilled water and dried in a drying oven at 50° C. The plates are then assessed visually using an overhead microscope (Plaque Multiplier from Technomara). The following data can be acquired from the test plates: CC50 (NHDF)=maximum substance concentration in μM at which no visible cytostatic effects on the cells are evident by comparison with the untreated cell control;

EC50 (HCMV) [µM] | SMILES | SI HCMV (selectivity index = CC50 (NHDF)/EC50 (HCMV)) (HCMV) | CC50 at 6 days [1] [µM]
0.0059 | Cc1ccc(N2CCN(C(=O)c3cc(NC(=O)Nc4ccc(OC(F)(F)F)cc4)cs3)CC2)nc1 [Example 9, N-(5-{[4-(5-Methylpyridin-2-yl)piperazin-1-yl]carbonyl}-3-thienyl)-N′-[4-(trifluoromethoxy)-phenyl]urea] | 3559 | 21
0.0054 | Cc1ccc(N2CCN(C(=O)c3cnc(NC(=O)Nc4ccc(OC(F)(F)F)cc4)s3)CC2)nc1 [Example 23] | 2637 | 11
0.0016 | Cc1ccc(N2CCN(C(=O)c3nc(NC(=O)Nc4ccc(OC(F)(F)F)cc4)sc3C)CC2)nc1 [Example 14] | 7333 | 11
0.0007 | CCn1cc(NC(=O)Nc2ccc(OC(F)(F)F)cc2)cc1C(=O)N1CCN(c2ccc(C)cn2)CC1 [Example 4, N-(1-Ethyl-5-{[4-(5-methylpyridin-2-yl)piperazin-1-yl]carbonyl}-1H-pyrrol-3-yl)-N′-[4-(trifluoromethoxy)phenyl]urea] | 28767 | 21
